The EC50 is the concentration at which the effect is half-maximal.

Calls of active or inactive are those of the source.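 How the source made its calls: active means EC50 at or below 33 µM; inactive means the rest.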

The subject of this assay is S. cerevisiae CIT2-GFP strain, flow cytometry GFP, 3 h. Put plainly: yeast TOR branch CIT2-GFP reporter modulators – flow cytometry, KU analogs, dose response, SAR follow-up (AID 488827).
Consider `CNc1nc(N)c([N+](=O)[O-])c(Nc2ccc(F)cc2)n1`, for which the EC50 is 56.3 µM (inactive). For `Nc1nc(Nc2ccccc2)nc(Nc2cccc(F)c2)c1[N+](=O)[O-]` the value was 61.4 µM (inactive).

Consider `COc1ccc([N+](=O)[O-])c(S(=O)(=O)c2ccc(Cl)cc2)n1`, for which the EC50 was 124 µM (inactive). Regarding `CN(C)CCCNc1nc(N)c([N+](=O)[O-])c(Nc2cccc(F)c2)n1`, the EC50 was 279 µM (inactive). For `O=C(Nc1nc(-c2ccccn2)cs1)c1cc2ccccc2o1` the value was 60.6 µM (inactive); for `O=C(Oc1c(Cl)cc(Cl)c2cccnc12)c1cccc([N+](=O)[O-])c1`, 251 µM (inactive). The result for `Cc1ccc(C(c2cc(Cl)c3cccnc3c2O)N2CCN(C)CC2)cc1` (configuration not stated) reads 45.9 µM (inactive); that for `COc1ccc([N+](=O)[O-])c(S(=O)(=O)c2ccccc2)n1`, > 300 µM (inactive); that for `Oc1c(I)cc(I)c2cccnc12`, 166 µM (inactive). `CNc1nc(N)c([N+](=O)[O-])c(Nc2cccc(Cl)c2)n1`: the EC50 was 1.07 µM. For `CC(C)(C)C(=O)NC(=S)NNC(=O)c1ccc(-c2ccccc2)cc1` the value was 66.9 µM (inactive); for `CNc1nc(N)c([N+](=O)[O-])c(Nc2ccccc2OC)n1`, 3.99 µM.

`O=C(Oc1ccnc2cc(Cl)ccc12)N1CCCCCC1`: the EC50 was 298 µM (inactive).

As to `O=C1ON=C(c2ccccc2)/C1=C\c1ccco1`, the EC50 is 188 µM (inactive). For `Nc1nc(NCCc2ccccc2)nc(Nc2cccc(F)c2)c1[N+](=O)[O-]` the value was 93.3 µM (inactive); for `CSC1=NS(=O)(=O)c2c(C)nn(C)c2S1`, 294 µM (inactive). The result for `CNc1nc(N)c([N+](=O)[O-])c(NC2CCCCC2)n1` reads 3.75 µM; that for `Nc1nc(Nc2cccc(F)c2)nc(Nc2cccc(F)c2)c1[N+](=O)[O-]`, 36.6 µM (inactive). For `Cc1ccc(S(=O)(=O)c2ncccc2[N+](=O)[O-])cc1` the value was 191 µM (inactive); for `CCOC(=O)CS(=O)(=O)c1nc(-c2ccccc2)cc(C(F)(F)F)n1`, 109 µM (inactive); for `Cc1c(C(=O)Nc2nc(-c3ccccn3)cs2)oc2ccccc12`, 161 µM (inactive).

On to `CNc1nc(N)c([N+](=O)[O-])c(Nc2ccccc2)n1`, for which the EC50 was 19.1 µM. The result for `Cc1ccc(/C=C2/C(=O)ON=C2c2ccccc2)o1` reads 39.6 µM (inactive). For `C/C(=N\NC(=O)c1ccc(C(C)(C)C)cc1)c1ccccn1` the value was 71 µM (inactive); for `O=[N+]([O-])c1cc(Cl)c2cccnc2c1O`, 33 µM (inactive).

Regarding `CCOC(=O)CSC1=NC(=O)/C(=C\c2ccc(Cl)cc2)S1`, the EC50 was 120 µM (inactive). For `CCOC(=O)CCS(=O)(=O)c1nc(-c2ccccc2)cc(C(F)(F)F)n1` the value was 107 µM (inactive); for `Clc1ccc(N=c2ssnc2Cl)cc1`, 81.1 µM (inactive). For `CNc1nc(N)c([N+](=O)[O-])c(Nc2cccc(F)c2)n1` the value was 2.52 µM; for `CN1CCN(C(c2ccc(C(F)(F)F)cc2)c2ccc3cccnc3c2O)CC1` (configuration not stated), 87.1 µM (inactive). Regarding `O=C(Oc1c(Cl)cc(Cl)c2cccnc12)c1ccco1`, the EC50 was 87.4 µM (inactive). Turning to `O=S(=O)(CCN(CCS(=O)(=O)C(F)(F)F)CC1CCCO1)C(F)(F)F` (configuration not stated), the EC50 is 65.2 µM (inactive).
